Key:
Format in all cases: in vivo
rice (Oryza sativa) = test: Test B flooded paddy: rice; conditions: Flood; 250 g ai/ha; applied to paddy water at 2-leaf stage; visually evaluated after 13 to 15 days
How it was run: (§1)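 Visual ratings on a 0–100 scale, where 0 means no effect and 100 means complete control, were assigned by comparison with controls 13 to 15 days after treatment. Compounds went into paddy water over 2-leaf plants flooded to 3 cm.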

[1] = system: barnyardgrass (Echinochloa crus-galli); test: Test B flooded paddy: barnyardgrass; conditions: Flood; 250 g ai/ha; applied to paddy water at 2-leaf stage; visually evaluated after 13 to 15 days
How it was run: as §1

[2] = system: blackgrass (Alopecurus myosuroides); test: Test C pre-/postemergence: blackgrass
How it was run: (§2)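 Preemergence on seeds in loam/sand, postemergence on 2–18 cm (1–4-leaf) plants in peat-based medium; compounds in non-phytotoxic solvent with surfactant. After 13–15 days in greenhouse, visual rating versus controls, 0 (no effect) to 100 (complete control).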

[3] = system: winter wheat (Triticum aestivum); test: Test C pre-/postemergence: winter wheat
How it was run: as §2

corn (Zea mays) = test: Test C pre-/postemergence: corn
How it was run: as §2

[4] = system: foxtail, giant (giant foxtail, Setaria faberii); test: Test C pre-/postemergence: foxtail, giant
How it was run: as §2

[5] = system: johnsongrass (Sorghum halepense); test: Test C pre-/postemergence: johnsongrass
How it was run: as §2

kochia (Kochia scoparia) = test: Test C pre-/postemergence: kochia
How it was run: as §2

[6] = system: pigweed (Amaranthus retroflexus); test: Test C pre-/postemergence: pigweed
How it was run: as §2

soybean (Glycine max) = test: Test C pre-/postemergence: soybean
How it was run: as §2

[7] = system: velvetleaf (Abutilon theophrasti); test: Test C pre-/postemergence: velvetleaf
How it was run: as §2

[8] = Postemergence, 31 g ai/ha, scale 0 to 100 (0 no effect, 100 complete control)
[9] = Postemergence, 62 g ai/ha, scale 0 to 100 (0 no effect, 100 complete control)
[10] = Postemergence, 125 g ai/ha, scale 0 to 100, 0 no effect, 100 complete control
[11] = Postemergence, 250 g ai/ha, scale 0 to 100
[12] = Preemergence, 31 g ai/ha, scale of 0 to 100, 0 is no effect, 100 is complete control
[13] = Preemergence, 62 g ai/ha, scale of 0 to 100, 0 is no effect, 100 is complete control
[14] = Preemergence, 125 g ai/ha, scale 0 to 100, 0 no effect, 100 complete control
[15] = Preemergence, 250 g ai/ha, scale 0 to 100, 0 no effect, 100 complete control

SMILES: Cc1nn(-c2ccc(C(F)(F)F)c(F)c2)nc1Oc1ccnc(C(F)(F)F)c1 [Compound 148]
- Plant response rating, Rice (0 to 100 scale, 0 is no effect, 100 is complete control) (rice (Oryza sativa)): 45
- Plant response rating, Barnyardgrass (0 to 100 scale, 0 is no effect, 100 is complete control) [1]: 65
- Plant response rating, Blackgrass [2, 8]: 40
- Plant response rating, Blackgrass [2, 9]: 50
- Plant response rating, Blackgrass [2, 10]: 70
- Plant response rating, Blackgrass [2, 11]: 80
- Plant response rating, Blackgrass [2, 12]: 60
- Plant response rating, Blackgrass [2, 13]: 85
- Plant response rating, Blackgrass [2, 14]: 90
- Plant response rating, Blackgrass [2, 15]: 90
- Plant response rating, Wheat [3, 8]: 20
- Plant response rating, Wheat [3, 9]: 25
- Plant response rating, Wheat [3, 10]: 40
- Plant response rating, Wheat [3, 11]: 40
- Plant response rating, Wheat [3, 13]: 5
- Plant response rating, Wheat [3, 14]: 30
- Plant response rating, Wheat [3, 15]: 35
- Plant response rating, Corn (corn (Zea mays); [8]): 25
- Plant response rating, Corn (corn (Zea mays); [9]): 30
- Plant response rating, Corn (corn (Zea mays); [10]): 55
- Plant response rating, Corn (corn (Zea mays); [11]): 60
- Plant response rating, Corn (corn (Zea mays); [12]): 5
- Plant response rating, Corn (corn (Zea mays); [13]): 10
- Plant response rating, Corn (corn (Zea mays); [14]): 15
- Plant response rating, Corn (corn (Zea mays); [15]): 45
- Plant response rating, Foxtail, Giant [4, 8]: 10
- Plant response rating, Foxtail, Giant [4, 9]: 35
- Plant response rating, Foxtail, Giant [4, 10]: 35
- Plant response rating, Foxtail, Giant [4, 11]: 75
- Plant response rating, Foxtail, Giant [4, 12]: 98
- Plant response rating, Foxtail, Giant [4, 13]: 100
- Plant response rating, Foxtail, Giant [4, 14]: 100
- Plant response rating, Foxtail, Giant [4, 15]: 100
- Plant response rating, Johnsongrass [5, 8]: 20
- Plant response rating, Johnsongrass [5, 9]: 20
- Plant response rating, Johnsongrass [5, 10]: 55
- Plant response rating, Johnsongrass [5, 11]: 98
- Plant response rating, Johnsongrass [5, 12]: 15
- Plant response rating, Johnsongrass [5, 13]: 80
- Plant response rating, Johnsongrass [5, 14]: 98
- Plant response rating, Johnsongrass [5, 15]: 98
- Plant response rating, Kochia (kochia (Kochia scoparia); [8]): 80
- Plant response rating, Kochia (kochia (Kochia scoparia); [9]): 85
- Plant response rating, Kochia (kochia (Kochia scoparia); [10]): 85
- Plant response rating, Kochia (kochia (Kochia scoparia); [11]): 95
- Plant response rating, Kochia (kochia (Kochia scoparia); [12]): 40
- Plant response rating, Kochia (kochia (Kochia scoparia); [13]): 40
- Plant response rating, Kochia (kochia (Kochia scoparia); [14]): 90
- Plant response rating, Kochia (kochia (Kochia scoparia); [15]): 95
- Plant response rating, Pigweed [6, 8]: 65
- Plant response rating, Pigweed [6, 9]: 98
- Plant response rating, Pigweed [6, 10]: 98
- Plant response rating, Pigweed [6, 11]: 98
- Plant response rating, Pigweed [6, 12]: 100
- Plant response rating, Pigweed [6, 13]: 100
- Plant response rating, Pigweed [6, 14]: 100
- Plant response rating, Pigweed [6, 15]: 100
- Plant response rating, Soybean (soybean (Glycine max); [8]): 45
- Plant response rating, Soybean (soybean (Glycine max); [9]): 45
- Plant response rating, Soybean (soybean (Glycine max); [10]): 80
- Plant response rating, Soybean (soybean (Glycine max); [11]): 90
- Plant response rating, Soybean (soybean (Glycine max); [12]): 5
- Plant response rating, Soybean (soybean (Glycine max); [13]): 10
- Plant response rating, Soybean (soybean (Glycine max); [14]): 20
- Plant response rating, Soybean (soybean (Glycine max); [15]): 30
- Plant response rating, Velvetleaf [7, 8]: 50
- Plant response rating, Velvetleaf [7, 9]: 50
- Plant response rating, Velvetleaf [7, 10]: 80
- Plant response rating, Velvetleaf [7, 11]: 85
- Plant response rating, Velvetleaf [7, 12]: 15
- Plant response rating, Velvetleaf [7, 13]: 55
- Plant response rating, Velvetleaf [7, 14]: 70
- Plant response rating, Velvetleaf [7, 15]: 80

SMILES: CCc1nn(-c2ccc(F)cc2)nc1Cc1ccnc(C(F)(F)F)c1 [Compound 154]
- Plant response rating, Rice (0 to 100 scale, 0 is no effect, 100 is complete control) (rice (Oryza sativa)): 45
- Plant response rating, Barnyardgrass (0 to 100 scale, 0 is no effect, 100 is complete control) [1]: 60
- Plant response rating, Blackgrass [2, 8]: 15
- Plant response rating, Blackgrass [2, 9]: 35
- Plant response rating, Blackgrass [2, 10]: 55
- Plant response rating, Blackgrass [2, 11]: 70
- Plant response rating, Blackgrass [2, 12]: 90
- Plant response rating, Blackgrass [2, 13]: 90
- Plant response rating, Blackgrass [2, 14]: 90
- Plant response rating, Blackgrass [2, 15]: 90
- Plant response rating, Wheat [3, 8]: 10
- Plant response rating, Wheat [3, 9]: 15
- Plant response rating, Wheat [3, 10]: 20
- Plant response rating, Wheat [3, 11]: 30
- Plant response rating, Wheat [3, 13]: 5
- Plant response rating, Wheat [3, 14]: 5
- Plant response rating, Wheat [3, 15]: 55
- Plant response rating, Corn (corn (Zea mays); [8]): 20
- Plant response rating, Corn (corn (Zea mays); [9]): 20
- Plant response rating, Corn (corn (Zea mays); [11]): 20
- Plant response rating, Corn (corn (Zea mays); [12]): 0
- Plant response rating, Corn (corn (Zea mays); [13]): 5
- Plant response rating, Corn (corn (Zea mays); [14]): 10
- Plant response rating, Corn (corn (Zea mays); [15]): 15
- Plant response rating, Foxtail, Giant [4, 8]: 20
- Plant response rating, Foxtail, Giant [4, 9]: 20
- Plant response rating, Foxtail, Giant [4, 10]: 55
- Plant response rating, Foxtail, Giant [4, 11]: 75
- Plant response rating, Foxtail, Giant [4, 12]: 100
- Plant response rating, Foxtail, Giant [4, 13]: 100
- Plant response rating, Foxtail, Giant [4, 14]: 100
- Plant response rating, Foxtail, Giant [4, 15]: 100
- Plant response rating, Johnsongrass [5, 8]: 10
- Plant response rating, Johnsongrass [5, 9]: 30
- Plant response rating, Johnsongrass [5, 10]: 65
- Plant response rating, Johnsongrass [5, 11]: 85
- Plant response rating, Johnsongrass [5, 12]: 40
- Plant response rating, Johnsongrass [5, 13]: 40
- Plant response rating, Johnsongrass [5, 14]: 90
- Plant response rating, Johnsongrass [5, 15]: 95
- Plant response rating, Kochia (kochia (Kochia scoparia); [8]): 90
- Plant response rating, Kochia (kochia (Kochia scoparia); [9]): 90
- Plant response rating, Kochia (kochia (Kochia scoparia); [10]): 90
- Plant response rating, Kochia (kochia (Kochia scoparia); [11]): 95
- Plant response rating, Pigweed [6, 8]: 95
- Plant response rating, Pigweed [6, 9]: 95
- Plant response rating, Pigweed [6, 10]: 98
- Plant response rating, Pigweed [6, 11]: 98
- Plant response rating, Pigweed [6, 12]: 100
- Plant response rating, Pigweed [6, 13]: 100
- Plant response rating, Pigweed [6, 14]: 100
- Plant response rating, Pigweed [6, 15]: 100
- Plant response rating, Soybean (soybean (Glycine max); [8]): 45
- Plant response rating, Soybean (soybean (Glycine max); [9]): 60
- Plant response rating, Soybean (soybean (Glycine max); [10]): 65
- Plant response rating, Soybean (soybean (Glycine max); [11]): 75
- Plant response rating, Soybean (soybean (Glycine max); [12]): 0
- Plant response rating, Soybean (soybean (Glycine max); [13]): 0
- Plant response rating, Soybean (soybean (Glycine max); [14]): 15
- Plant response rating, Soybean (soybean (Glycine max); [15]): 15
- Plant response rating, Velvetleaf [7, 8]: 35
- Plant response rating, Velvetleaf [7, 9]: 45
- Plant response rating, Velvetleaf [7, 10]: 55
- Plant response rating, Velvetleaf [7, 11]: 65
- Plant response rating, Velvetleaf [7, 12]: 5
- Plant response rating, Velvetleaf [7, 13]: 45
- Plant response rating, Velvetleaf [7, 14]: 90
- Plant response rating, Velvetleaf [7, 15]: 100

From patent US9302999B2, “Substituted triazoles as herbicides” (E. I. DU PONT DE NEMOURS AND COMPANY, priority 2012, dated 2016)
